In the supplement of paper PMC10307832:

compound: C1=CC2=C(C=C(C(=C2N=C1)O)N=NC3=CC4=C(C=C3)C=C(C=C4)S(=O)(=O)O)S(=O)(=O)O + Nc1ncn([C@H]2C[C@H](O)[C@@H](CO)O2)c(=O)n1 [Decitabine] (partner 2 µM); assay: relative viability (nuclei count vs DMSO), 5 days (fraction); higher = more cells survive; settings: first compound 0.08 µM
In short: (§1)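 Each reported value is a median over duplicate plates. It expresses relative viability: treated-well nuclei count divided by vehicle-well nuclei count. Lung cancer cell lines in 1536-well plates were dosed by pin tool a day after seeding, alone with one drug or with a fixed anchor-drug dose plus five library-drug doses (not always all listed) in √10 steps, and nuclei were counted after 5 days.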

Cell Line	relative viability
LOU-NH91	0.865
ChaGo-K-1	0.54
NCI-H2170	0.494
NCI-H2405	0.744
HOP-62	0.186
A549	0.4
NCI-H522	0.561
SW 900	0.442
NCI-H1395	0.724
NCI-H1793	0.527
NCI-H1944	0.448
ABC-1	1.14
NCI-H358	0.245

same assay, conditions: first compound 0.253 µM

Cell Line	relative viability
NCI-H2342	0.705
NCI-H727	0.854
NCI-H1650	0.37
NCI-H1993	0.669
SW 1573	0.494
NCI-H838	0.441
LCLC-103H	0.774
NCI-H520	0.519
NCI-H2126	0.567
EMC-BAC-2	0.991
NCI-H2085	0.53
HCC-366	0.307
NCI-H1666	0.711
NCI-H596	0.954
LK-2	0.254
NCI-H2087	0.259
NCI-H1648	0.525

Cell Line	relative viability
SK-MES-1	0.362
H3255	0.635
COR-L23	0.448
COR-L 105	0.705
LOU-NH91	0.791
ChaGo-K-1	0.534
NCI-H2170	0.454
NCI-H2405	0.685
HOP-62	0.206
A549	0.252
NCI-H522	0.644
SW 900	0.412
NCI-H1395	0.734
NCI-H1793	0.521
NCI-H1944	0.437
ABC-1	1.16
NCI-H358	0.216

same assay, conditions: first compound 0.8 µM

Cell Line	relative viability
NCI-H2342	0.724
NCI-H727	0.793
NCI-H1650	0.511
NCI-H1993	0.624
SW 1573	0.419
NCI-H838	0.434
LCLC-103H	0.655
NCI-H520	0.542
NCI-H2126	0.599
EMC-BAC-2	0.953
NCI-H2085	0.496
HCC-366	0.347
NCI-H1666	0.716
NCI-H596	1.01
LK-2	0.201
NCI-H2087	0.222
SK-MES-1	0.336

Cell Line	relative viability
H3255	0.58
COR-L23	0.421
COR-L 105	0.65
LOU-NH91	0.834
ChaGo-K-1	0.532
NCI-H2170	0.464
NCI-H2405	0.7
HOP-62	0.24
A549	0.286
NCI-H522	0.689
SW 900	0.448
NCI-H1395	0.737
NCI-H1793	0.409
NCI-H1944	0.446
ABC-1	0.936
NCI-H358	0.218

same assay, conditions: first compound 2.53 µM

Cell Line	relative viability
NCI-H2342	0.806
NCI-H727	0.929
NCI-H1650	0.447
NCI-H1993	0.59
SW 1573	0.494
NCI-H838	0.514
LCLC-103H	0.744
NCI-H520	0.468
NCI-H2126	0.612
EMC-BAC-2	1.05
NCI-H2085	0.631
HCC-366	0.357
NCI-H1666	0.815
NCI-H596	1.02
LK-2	0.384
NCI-H2087	0.131
SK-MES-1	0.405

Cell Line	relative viability
H3255	0.655
COR-L23	0.508
COR-L 105	0.647
LOU-NH91	0.791
ChaGo-K-1	0.439
NCI-H2170	0.429
NCI-H2405	0.828
HOP-62	0.254
A549	0.231
NCI-H522	0.683
SW 900	0.473
NCI-H1395	0.714
NCI-H1793	0.47
NCI-H1944	0.376
ABC-1	1.39
NCI-H358	0.203

same assay, conditions: first compound 8 µM

Cell Line	relative viability
NCI-H2342	0.705
NCI-H727	0.801
NCI-H1650	0.318
NCI-H1993	0.634
SW 1573	0.275
NCI-H838	0.44
LCLC-103H	0.732
NCI-H520	0.508
NCI-H2126	0.609
EMC-BAC-2	0.98
NCI-H2085	0.546
HCC-366	0.358
NCI-H1666	0.747
NCI-H596	1.38
LK-2	0.296
NCI-H2087	0.24
NCI-H1648	0.551

Cell Line	relative viability
SK-MES-1	0.367
H3255	0.585
COR-L23	0.407
COR-L 105	0.567
LOU-NH91	0.841
ChaGo-K-1	0.528
NCI-H2170	0.459
NCI-H2405	0.742
HOP-62	0.228
A549	0.207
NCI-H522	0.6
SW 900	0.538
NCI-H1395	0.691
NCI-H1793	0.49
NCI-H1944	0.38
ABC-1	1.09
NCI-H358	0.132

compound: C1=CC2=C(C=C(C(=C2N=C1)O)N=NC3=CC4=C(C=C3)C=C(C=C4)S(=O)(=O)O)S(=O)(=O)O + CC(=O)Nc1cccc(-n2c(=O)n(C3CC3)c(=O)c3c(Nc4ccc(I)cc4F)n(C)c(=O)c(C)c32)c1 [Trametinib] (partner 0.02 µM); assay: as above; settings: first compound 0.08 µM
In short: as §1

Cell Line	relative viability
NCI-H2342	0.82
NCI-H727	0.344
NCI-H1650	0.672
NCI-H1993	0.49
SW 1573	0.514
NCI-H838	0.566
LCLC-103H	0.661
NCI-H520	0.784
NCI-H2126	0.568
EMC-BAC-2	0.964
NCI-H2085	0.538
HCC-366	0.402
NCI-H1666	0.874
NCI-H596	0.939
LK-2	0.795
NCI-H2087	0.2
SK-MES-1	0.514

Cell Line	relative viability
H3255	0.588
COR-L23	0.669
COR-L 105	0.514
LOU-NH91	0.841
ChaGo-K-1	0.983
NCI-H2170	1.06
NCI-H2405	0.635
HOP-62	0.428
NCI-H522	0.494
SW 900	0.873
NCI-H1395	1.07
CAL-12T	0.369
NCI-H2228	0.81
NCI-H1793	0.53
NCI-H1944	0.415
NCI-H358	0.158

same assay, conditions: first compound 0.253 µM

Cell Line	relative viability
NCI-H2342	0.884
NCI-H727	0.398
NCI-H1650	0.547
NCI-H1993	0.465
SW 1573	0.477
NCI-H838	0.543
LCLC-103H	0.706
NCI-H520	0.6
NCI-H2126	0.539
EMC-BAC-2	0.853
NCI-H2085	0.512
HCC-366	0.342
NCI-H1666	0.877
NCI-H596	0.751
LK-2	0.602
NCI-H2087	0.213
NCI-H1648	0.57

Cell Line	relative viability
SK-MES-1	0.54
H3255	0.614
COR-L23	0.604
COR-L 105	0.437
LOU-NH91	0.77
ChaGo-K-1	0.908
NCI-H2170	0.856
NCI-H2405	0.597
HOP-62	0.392
NCI-H522	0.676
SW 900	0.764
NCI-H1395	1.02
CAL-12T	0.332
NCI-H2228	0.453
NCI-H1793	0.387
NCI-H1944	0.385
NCI-H358	0.128

same assay, conditions: first compound 0.8 µM

Cell Line	relative viability
NCI-H2342	0.943
NCI-H727	0.351
NCI-H1650	0.512
NCI-H1993	0.575
SW 1573	0.608
NCI-H838	0.453
LCLC-103H	0.658
NCI-H520	0.768
NCI-H2126	0.56
EMC-BAC-2	0.912
NCI-H2085	0.557
HCC-366	0.398
NCI-H1666	0.861
NCI-H596	0.77
LK-2	0.607
NCI-H2087	0.196
SK-MES-1	0.587

Cell Line	relative viability
H3255	0.66
COR-L23	0.609
COR-L 105	0.469
LOU-NH91	0.759
ChaGo-K-1	0.938
NCI-H2170	0.83
NCI-H2405	0.599
HOP-62	0.452
NCI-H522	0.748
SW 900	0.699
NCI-H1395	1.02
CAL-12T	0.318
NCI-H2228	0.603
NCI-H1793	0.452
NCI-H1944	0.416
NCI-H358	0.142

same assay, conditions: first compound 2.53 µM

Cell Line	relative viability
NCI-H2342	0.808
NCI-H727	0.356
NCI-H1650	0.682
NCI-H1993	0.539
SW 1573	0.564
NCI-H838	0.508
LCLC-103H	0.667
NCI-H520	0.625
NCI-H2126	0.606
EMC-BAC-2	0.997
NCI-H2085	0.582
HCC-366	0.432
NCI-H1666	0.861
NCI-H596	0.795
LK-2	0.776
NCI-H2087	0.217
SK-MES-1	0.585

Cell Line	relative viability
H3255	0.654
COR-L23	0.556
COR-L 105	0.48
LOU-NH91	0.733
ChaGo-K-1	0.875
NCI-H2170	0.984
NCI-H2405	0.686
HOP-62	0.37
NCI-H522	0.791
SW 900	0.968
NCI-H1395	0.911
CAL-12T	0.332
NCI-H2228	0.443
NCI-H1793	0.347
NCI-H1944	0.474
NCI-H358	0.136

same assay, conditions: first compound 8 µM

Cell Line	relative viability
NCI-H2342	0.764
NCI-H727	0.335
NCI-H1650	0.433
NCI-H1993	0.504
SW 1573	0.0865
NCI-H838	0.653
LCLC-103H	0.675
NCI-H520	0.807
NCI-H2126	0.555
EMC-BAC-2	0.911
NCI-H2085	0.433
HCC-366	0.302
NCI-H1666	0.903
NCI-H596	0.681
LK-2	0.552
NCI-H2087	0.236
NCI-H1648	0.59

Cell Line	relative viability
SK-MES-1	0.548
H3255	0.624
COR-L23	0.611
COR-L 105	0.476
LOU-NH91	0.797
ChaGo-K-1	0.798
NCI-H2170	0.927
NCI-H2405	0.687
HOP-62	0.359
NCI-H522	0.894
SW 900	0.821
NCI-H1395	1.02
CAL-12T	0.28
NCI-H2228	0.703
NCI-H1793	0.348
NCI-H1944	0.366
NCI-H358	0.144
